Measured values reported in ChEMBL document CHEMBL3727346, “6-(pyridinyl)-4-pyrimidone derivates as tau protein kinase 1 inhibitors” (2011).
Activity calls are given as the source filed them. No rule for the calls is given here.

biological target: Glycogen synthase kinase-3 beta splice variant X1 (Bos taurus) (UniProt A0A059UE90); assay: Inhibition of bovine cerebral TPK1 assessed as reduction in P-GS1 phosphorylation using [32gammaP]ATP incubated for 2 hrs by liquid scintillation counting method

SMILES | inhibition
Cn1c(N2CCO[C@@H](c3ccc(OCCN4CCCCC4)cc3)C2)nc(-c2ccncc2F)cc1=O | Active
Cn1c(N2CCO[C@@H](c3ccc(N4CCNC4=O)cc3)C2)nc(-c2ccncc2F)cc1=O | Active
Cn1c(N2CCO[C@@H](c3ccc(OCCCN4CCOCC4)cc3)C2)nc(-c2ccncc2F)cc1=O | Active
Cn1c(N2CCN[C@@H](c3ccc(-c4ccc(Cl)cc4Cl)cc3)C2)nc(-c2ccncc2F)cc1=O | Active
Cn1c(N2CCO[C@@H](c3ccc(N4CCN(c5ccccc5)CC4)cc3)C2)nc(-c2ccncc2F)cc1=O | Active
Cn1c(N2CCO[C@@H](c3ccc(OC4CCCCC4)cc3)C2)nc(-c2ccncc2F)cc1=O | Active
CN(c1ccc([C@H]2CN(c3nc(-c4ccncc4F)cc(=O)n3C)CCO2)cc1)C1CCCCCC1 | Active
Cn1c(N2CCO[C@@H](c3cccc(NC(=O)C4CC4)c3)C2)nc(-c2ccncc2F)cc1=O | Active
Cn1c(N2CCO[C@@H](c3ccc(OCC4CC4)cc3)C2)nc(-c2ccncc2F)cc1=O | Active
CC(=O)N(c1ccc([C@H]2CN(c3nc(-c4ccncc4F)cc(=O)n3C)CCO2)cc1)C1CCCCC1 | Active
Cn1c(N2CCO[C@@H](c3cccc(N)c3)C2)nc(-c2ccncc2F)cc1=O | Active
Cn1c(N2CCN[C@@H](c3ccc(-c4ccc(OC(F)(F)F)cc4)cc3)C2)nc(-c2ccncc2F)cc1=O | Active
CC(C)N1CCN(c2ccc([C@H]3CN(c4nc(-c5ccncc5F)cc(=O)n4C)CCN3)cc2)CC1 | Active
CSc1ccc(-c2ccc([C@H]3CN(c4nc(-c5ccncc5F)cc(=O)n4C)CCN3)cc2)cc1 | Active
COc1ccc(C(C)(C)O)cc1[C@H]1CN(c2nc(-c3ccncc3F)cc(=O)n2C)CCO1 | Active
CCN(CC)C(=O)Nc1ccc([C@H]2CN(c3nc(-c4ccncc4F)cc(=O)n3C)CCO2)cc1 | Active
Cn1c(N2CCO[C@@H](c3ccc(CN4CCOCC4)cc3)C2)nc(-c2ccncc2F)cc1=O | Active
Cn1c(N2CCO[C@@H](c3ccc(N4CC[C@H](N5CCCC5)C4)cc3)C2)nc(-c2ccncc2F)cc1=O | Active
Cc1nnc(-c2ccc([C@H]3CN(c4nc(-c5ccncc5F)cc(=O)n4C)CCO3)cc2)o1 | Active
Cn1c(N2CCO[C@@H](c3ccc(NC(=O)CN4CCCC4)cc3)C2)nc(-c2ccncc2F)cc1=O | Active
Cn1c(N2CCO[C@@H](c3ccc(N4CCC(O)CC4)cc3)C2)nc(-c2ccncc2F)cc1=O | Active
Cn1c(N2CCN[C@@H](c3ccc(-c4ccc(C(C)(C)C)cc4)cc3)C2)nc(-c2ccncc2F)cc1=O | Active
Cc1nc(-c2ccc([C@H]3CN(c4nc(-c5ccncc5F)cc(=O)n4C)CCO3)cc2)no1 | Active
Cn1c(N2CCO[C@@H](c3ccc(NC(=O)C(C)(C)O)cc3)C2)nc(-c2ccncc2F)cc1=O | Active
Cn1c(N2CCN[C@@H](c3ccc(-c4ccc(Cl)cc4)cc3)C2)nc(-c2ccncc2F)cc1=O | Active
Cn1c(N2CCO[C@@H](c3ccc(N4CC[C@@H](N5CCOCC5)C4)cc3)C2)nc(-c2ccncc2F)cc1=O | Active
Cn1c(N2CCO[C@@H](c3ccc(N4CC(O)C4)cc3)C2)nc(-c2ccncc2F)cc1=O | Active

SMILES | inhibition
CN(c1ccc([C@H]2CN(c3nc(-c4ccncc4F)cc(=O)n3C)CCO2)cc1)C12CC3CC(CC(C3)C1)C2 | Active
Cn1c(N2CCO[C@@H](c3ccc(N4CC[C@H](N5CCOCC5)C4)cc3)C2)nc(-c2ccncc2F)cc1=O | Active
Cc1ccc(-c2ccc([C@H]3CN(c4nc(-c5ccncc5F)cc(=O)n4C)CCN3)cc2)cc1 | Active
CN(c1ccc([C@H]2CN(c3nc(-c4ccncc4F)cc(=O)n3C)CCO2)cc1)C1CCOCC1 | Active
Cn1c(N2CCO[C@@H](c3ccc(-c4nnco4)cc3)C2)nc(-c2ccncc2F)cc1=O | Active
Cn1c(N2CCO[C@@H](c3cccc(NS(C)(=O)=O)c3)C2)nc(-c2ccncc2F)cc1=O | Active
CC(C)c1ccc(-c2ccc([C@H]3CN(c4nc(-c5ccncc5F)cc(=O)n4C)CCN3)cc2)cc1 | Active
Cn1c(N2CCO[C@@H](c3ccc(C(=O)NC4CCCCC4)cc3)C2)nc(-c2ccncc2F)cc1=O | Active
Cn1c(N2CCO[C@@H](c3ccc(N4CCOCC4)cc3)C2)nc(-c2ccncc2F)cc1=O | Active
CCN(CC)c1ccc([C@H]2CN(c3nc(-c4ccncc4F)cc(=O)n3C)CCO2)c(OC)c1 | Active
Cn1c(N2CCO[C@@H](c3ccc(N4CC[C@@H](O)C4)cc3)C2)nc(-c2ccncc2F)cc1=O | Active
Cn1c(N2CCO[C@@H](c3ccc(N(c4ccccn4)c4ccccn4)cc3)C2)nc(-c2ccncc2F)cc1=O | Active
Cn1c(N2CCO[C@@H](c3ccc(N(C(=O)c4ccccc4)C4CCCCC4)cc3)C2)nc(-c2ccncc2F)cc1=O | Active
CN(C)[C@H]1CCN(c2ccc([C@H]3CN(c4nc(-c5ccncc5F)cc(=O)n4C)CCO3)cc2)C1 | Active
C[C@@H]1CN(c2ccc([C@H]3CN(c4nc(-c5ccncc5F)cc(=O)n4C)CCO3)cc2)C[C@H](C)O1 | Active
CN(c1ccc([C@H]2CN(c3nc(-c4ccncc4F)cc(=O)n3C)CCO2)cc1)C1C2CC3CC(C2)CC1C3 (stereo not given in full) | Active
Cn1c(N2CCO[C@@H](c3ccc(N4CCC4)cc3)C2)nc(-c2ccncc2F)cc1=O | Active
Cn1c(N2CCO[C@@H](c3ccc(N4CCC(O)C4)cc3)C2)nc(-c2ccncc2F)cc1=O (stereo not given in full) | Active
Cn1c(N2CCN[C@@H](c3ccc(N4CCC(N5CCCCC5)CC4)cc3)C2)nc(-c2ccncc2F)cc1=O | Active
COc1ccc(NC(=O)C2CC2)cc1[C@H]1CN(c2nc(-c3ccncc3F)cc(=O)n2C)CCO1 | Active
Cn1c(N2CCO[C@@H](c3ccc(O)cc3)C2)nc(-c2ccncc2F)cc1=O | Active
COc1ccc(-c2ccc([C@H]3CN(c4nc(-c5ccncc5F)cc(=O)n4C)CCN3)cc2)c(OC)c1 | Active
Cn1c(N2CCO[C@@H](c3ccc(F)cc3)C2)nc(-c2ccncc2F)c(F)c1=O | Active
Cn1c(N2CCOC(c3ccccc3OCCCN)C2)nc(-c2ccncc2F)cc1=O (stereo not given) | Active
Cn1c(N2CCOC(c3ccc4c(c3)NC(=O)CO4)C2)nc(-c2ccncc2F)cc1=O (racemic) | Active
Cn1c(N2CCO[C@@H](c3ccc(NC4C5CC6CC(C5)CC4C6)cc3)C2)nc(-c2ccncc2F)cc1=O (stereo not given in full) | Active
CN1CCN(CCOc2ccc([C@H]3CN(c4nc(-c5ccncc5F)cc(=O)n4C)CCO3)cc2)CC1 | Active

SMILES | inhibition
Cn1c(N2CCO[C@@H](c3ccc(N(CC(F)(F)F)CC(F)(F)F)cc3)C2)nc(-c2ccncc2F)cc1=O | Active
Cn1c(N2CCO[C@@H](c3ccc(N4CCc5ccccc54)cc3)C2)nc(-c2ccncc2F)cc1=O | Active
Cn1c(N2CCO[C@@H](c3ccc(N(C(=O)C4CC4)C4CCCCC4)cc3)C2)nc(-c2ccncc2F)cc1=O | Active
Cn1c(N2CCO[C@@H](c3ccc(NS(C)(=O)=O)cc3)C2)nc(-c2ccncc2F)cc1=O | Active
CCN(CC)c1ccc([C@H]2CN(c3nc(-c4ccncc4F)cc(=O)n3C)CCO2)cc1 | Active
Cn1c(N2CCO[C@@H](c3ccc(NC4CCc5ccccc54)cc3)C2)nc(-c2ccncc2F)cc1=O (stereo not given in full) | Active
CN1CCC(Oc2ccc([C@H]3CN(c4nc(-c5ccncc5F)cc(=O)n4C)CCO3)cc2)CC1 | Active
CN1CCN(c2ccc([C@H]3CN(c4nc(-c5ccncc5F)cc(=O)n4C)CCN3)cc2)CC1 | Active
Cn1c(N2CCO[C@@H](c3ccc(N4CCN(CCO)C4=O)cc3)C2)nc(-c2ccncc2F)cc1=O | Active
CN1CCC2(CCN(c3ccc([C@H]4CN(c5nc(-c6ccncc6F)cc(=O)n5C)CCN4)cc3)CC2)C1 | Active
Cn1c(N2CCNC(c3ccc(-c4ncon4)cc3)C2)nc(-c2ccncc2F)cc1=O (stereo not given) | Active
Cn1c(N2CCN[C@@H](c3ccc(C#N)cc3)C2)nc(-c2ccncc2F)cc1=O | Active
Cn1c(N2CCO[C@@H](c3ccc(N4CCCCC4)cc3)C2)nc(-c2ccncc2F)cc1=O | Active
CC(C)N1CCN(c2ccc([C@H]3CN(c4nc(-c5ccncc5F)cc(=O)n4C)CCO3)cc2)CC1 | Active
C[C@@H]1CN(c2ccc([C@H]3CN(c4nc(-c5ccncc5F)cc(=O)n4C)CCN3)cc2)C[C@H](C)N1 | Active
Cn1c(N2CCN[C@@H](c3ccc(N4CC[C@H](C(N)=O)C4)cc3)C2)nc(-c2ccncc2F)cc1=O | Active
Cn1c(N2CCO[C@@H](c3ccc(NC(=O)CN4CCOCC4)cc3)C2)nc(-c2ccncc2F)cc1=O | Active
Cn1c(N2CCO[C@@H](c3ccc(N4CC[C@@H](N5CCCC5)C4)cc3)C2)nc(-c2ccncc2F)cc1=O | Active
CC(C)Oc1ccc([C@H]2CN(c3nc(-c4ccncc4F)cc(=O)n3C)CCO2)cc1 | Active
CC(=O)N1CCN(CCOc2ccc([C@H]3CN(c4nc(-c5ccncc5F)cc(=O)n4C)CCO3)cc2)CC1 | Active
Cn1c(N2CCO[C@@H](c3ccc(N4CCOC4=O)cc3)C2)nc(-c2ccncc2F)cc1=O | Active
Cn1c(N2CCO[C@@H](c3ccc(N(CCO)C4CCCCC4)cc3)C2)nc(-c2ccncc2F)cc1=O | Active
Cn1c(N2CCN[C@@H](c3ccc(-c4ccc(C#N)cc4)cc3)C2)nc(-c2ccncc2F)cc1=O | Active
CN(c1ccc([C@H]2CN(c3nc(-c4ccncc4F)cc(=O)n3C)CCO2)cc1)C1CCCCC1 | Active
CCCCOc1ccc(-c2ccc([C@H]3CN(c4nc(-c5ccncc5F)cc(=O)n4C)CCN3)cc2)cc1 | Active
COc1ccc(N)cc1[C@H]1CN(c2nc(-c3ccncc3F)cc(=O)n2C)CCO1 | Active
